From patent US11840543B2, “Compounds and uses” (The University of Queensland, priority 2017, dated 2023) come the findings set out here.

Usually IC50 stands for the point on the concentration scale where inhibition reaches its midpoint.

T1 sequence (Q96P20 whole entry): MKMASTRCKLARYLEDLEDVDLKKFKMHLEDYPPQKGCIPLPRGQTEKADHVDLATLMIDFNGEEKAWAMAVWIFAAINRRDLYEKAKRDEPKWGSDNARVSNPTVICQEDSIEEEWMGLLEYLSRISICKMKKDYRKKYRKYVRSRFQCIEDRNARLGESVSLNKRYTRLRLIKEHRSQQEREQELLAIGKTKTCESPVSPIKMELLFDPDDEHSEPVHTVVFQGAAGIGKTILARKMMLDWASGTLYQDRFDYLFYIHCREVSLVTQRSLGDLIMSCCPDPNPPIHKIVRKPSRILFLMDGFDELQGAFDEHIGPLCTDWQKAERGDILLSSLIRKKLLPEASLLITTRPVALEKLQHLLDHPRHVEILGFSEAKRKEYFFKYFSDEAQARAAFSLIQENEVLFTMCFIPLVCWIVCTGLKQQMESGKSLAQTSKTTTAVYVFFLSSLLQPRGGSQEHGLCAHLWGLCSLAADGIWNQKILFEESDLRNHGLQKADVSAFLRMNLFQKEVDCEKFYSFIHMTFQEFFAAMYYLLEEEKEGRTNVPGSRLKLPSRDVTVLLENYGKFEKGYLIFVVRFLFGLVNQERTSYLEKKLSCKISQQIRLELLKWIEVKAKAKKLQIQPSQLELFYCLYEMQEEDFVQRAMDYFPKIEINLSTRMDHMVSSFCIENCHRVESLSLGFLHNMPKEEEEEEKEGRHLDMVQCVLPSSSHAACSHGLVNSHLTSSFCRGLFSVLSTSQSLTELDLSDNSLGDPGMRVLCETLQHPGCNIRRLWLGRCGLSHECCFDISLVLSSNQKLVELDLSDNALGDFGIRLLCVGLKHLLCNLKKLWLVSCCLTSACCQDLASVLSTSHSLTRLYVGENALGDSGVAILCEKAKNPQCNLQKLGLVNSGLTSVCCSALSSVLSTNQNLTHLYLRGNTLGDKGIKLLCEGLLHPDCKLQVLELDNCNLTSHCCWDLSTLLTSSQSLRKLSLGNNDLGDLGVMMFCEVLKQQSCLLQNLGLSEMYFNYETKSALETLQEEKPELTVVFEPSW

In the first assay the test system is MIN6 cells. The experiment in a line: MIN6 insulin assay (insulin secretion, radioimmunoassay). The settings on record: 10 μM test compound, 2.8 mM glucose KRB, 1 h; FIG. 1. The format is cell-based. The protocol:
To confirm the insulinotropic properties of the compounds of the invention, their ability to stimulate insulin secretion from MIN6 cells at a single concentration (10 μM) was tested using the following protocol. The tests were conducted by the Garvan Institute of Medical Research, Sydney, Australia.
MIN6 INSULIN ASSAY PROTOCOL: MIN6 cells (passage 29-37) were incubated for 1 h in Krebs-Ringer buffer (KRB) containing 2.8 mM glucose. The cells were then stimulated for 1 h in either 2.8 mM glucose KRB, 20 mM glucose KRB, or 2.8 mM glucose KRB plus test compound. Supernatants were collected and then assayed using rat insulin radioimmunoassay kit (RI-13K, Merck Millipore).
Regarding `CC(C)(O)c1coc(S(=O)(=O)NC(=O)Nc2c3c(cc4c2CCC4)CCC3)c1` [CE7, MCC 950], the “insulin secretion from MIN6 cells” value was “basal levels of insulin secretion”.

A further assay addresses T1, NLRP3 (Homo sapiens, UniProt Q96P20).
T1 construct: To generate HMDM, human monocytes are isolated from buffy coat blood; endogenous in cells; host or cells: human monocyte-derived macrophages (HMDM) from CD14+ buffy coat monocytes
As to the kind of experiment: HMDM NLRP3 inflammasome assay, IL-1β secretion (Table 2). In kind it is cell-based. The settings on record: human monocyte derived macrophages.
Procedure: HMDM CELL CULTURE: To generate HMDM, human monocytes are isolated from buffy coat blood using Ficoll-Plaque Plus (GE Healthcare) and density centrifugation. CD14^+ cell selection is performed using MACS magnetic beads (Miltenyl Biotec). […] 91, p.
Medium is removed and replaced with serum free medium (SFM) containing test compound 30 min prior to NLRP3 stimulation. […] ATP can be sourced from Sigma Aldrich, nigericin and MSU from Invivogen and LeuLeu-Ome from Chem-Impex International.
MEASUREMENT OF IL-1β SECRETION: For ELISA assays cells are seeded in 96 well plates. Supernatants are removed and analysed using ELISA kits according to the manufacturer's instructions (DuoSet® R&D Systems, ReadySetGo!® eBioscience, BD OptEIA™, or Perkin Elmer AlphaLISA®).
Consider `O=C(Nc1c2c(cc3c1CCC3)CCC2)NS(=O)(=O)c1cccc(C(=O)O)c1` [Example 10, 3-(N-((1,2,3,5,6,7-Hexahydro-s-indacen-4-yl)carbamoyl)sulfamoyl)-benzoic acid], for which the IC50 is < 1000 nM.

On to `C#CCNC(=O)CCc1ccc(S(=O)(=O)NC(=O)Nc2c3c(cc4c2CCC4)CCC3)cc1` [Example 13, 3-(4-(N-((1,2,3,5,6,7-Hexahydro-s-indacen-4-yl)carbamoyl)sulfamoyl)-phenyl)-N-(prop-2-yn-1-yl)propanamide], for which the IC50 is < 1000 nM.

Another assay deals with T2, NLRP3 (Mus musculus, UniProt Q8R4B8).
T2 construct: Macrophages from C57BL/6 mice were differentiated from bone marrow; endogenous in cells; host or cells: primary bone marrow-derived macrophages (BMDM) from C57BL/6 mice
T2 sequence (Q8R4B8 whole entry): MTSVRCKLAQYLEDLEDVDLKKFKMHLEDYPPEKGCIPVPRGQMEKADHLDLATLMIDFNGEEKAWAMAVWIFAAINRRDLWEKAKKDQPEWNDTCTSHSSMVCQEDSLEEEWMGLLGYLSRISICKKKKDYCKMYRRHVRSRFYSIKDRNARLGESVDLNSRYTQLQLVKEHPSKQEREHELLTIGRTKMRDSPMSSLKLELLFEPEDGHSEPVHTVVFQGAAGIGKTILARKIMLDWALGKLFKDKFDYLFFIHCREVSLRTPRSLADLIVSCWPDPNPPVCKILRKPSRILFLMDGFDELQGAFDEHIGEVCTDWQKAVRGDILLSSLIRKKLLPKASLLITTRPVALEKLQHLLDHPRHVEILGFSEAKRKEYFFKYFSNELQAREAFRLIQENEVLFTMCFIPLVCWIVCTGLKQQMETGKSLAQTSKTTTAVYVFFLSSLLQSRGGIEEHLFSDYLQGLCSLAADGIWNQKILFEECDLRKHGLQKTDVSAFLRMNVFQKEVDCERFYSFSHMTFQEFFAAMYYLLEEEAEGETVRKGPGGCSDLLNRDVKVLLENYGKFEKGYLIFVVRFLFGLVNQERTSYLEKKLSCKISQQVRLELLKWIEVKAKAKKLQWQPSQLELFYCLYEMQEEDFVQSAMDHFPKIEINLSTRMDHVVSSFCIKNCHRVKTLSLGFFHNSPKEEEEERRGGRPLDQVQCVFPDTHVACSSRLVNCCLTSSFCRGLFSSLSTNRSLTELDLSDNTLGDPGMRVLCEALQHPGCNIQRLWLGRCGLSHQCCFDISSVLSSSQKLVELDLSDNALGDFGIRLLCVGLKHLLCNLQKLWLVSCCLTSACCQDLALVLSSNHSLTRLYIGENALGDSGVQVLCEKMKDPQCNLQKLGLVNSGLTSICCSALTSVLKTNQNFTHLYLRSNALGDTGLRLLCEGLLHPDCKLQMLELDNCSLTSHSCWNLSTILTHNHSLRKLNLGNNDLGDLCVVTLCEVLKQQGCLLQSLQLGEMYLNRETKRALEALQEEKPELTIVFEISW
The experiment in a line: NLRP3 inflammasome assay: IL-1β secretion from LPS-primed, ATP-stimulated murine BMDM (Table 1). In kind it is cell-based, murine (C57BL/6 mice). To be noted: ATP 2.5 mM 1 h, ELISA, read-out: IC50 (NLRP3 inhibitory activity). The procedure:
The NLRP3-inhibitory effect of a number of the above compounds was tested by measuring the IL-1β secretion from murine bone marrow derived macrophages (BMDM) primed with lipopolysaccharide (LPS), treated with test compound (to a maximum concentration of 200 μM) and finally stimulated with the NLRP3 stimulus ATP. The half-maximal inhibitory concentration (IC50) was determined for each compound and compared to a number of comparative examples (CE 1-10) including commercially available oral sulphonylureas (CE1-6) and the known NLRP3 inhibitor MCC 950 (CE7). The experimental protocol was as follows.
The University of Queensland Animal Ethics Committee approved all experimental protocols involving mice.
NLRP3 INFLAMMASOME ASSAY: BMDM were seeded at 1×10^6 cells/mL in 96 well plates. The following day the overnight medium was replaced with Opti-MEM® reduced serum medium (Life Technologies) and cells were stimulated with 100 ng/mL ultrapure E. coli K12 LPS (Invivogen) for 3 h. Compounds were prepared from a 10 mM stock by serial dilution in 80% DMSO/20% 10 mM ammonium bicarbonate. […] IL-1β levels in cell-free supernatants were analysed by ELISA (ReadySetGo!® eBioscience).
(In general: ELISA stands for enzyme-linked immunosorbent assay.)
Take `Cc1cc(C(=O)NCCc2ccc(S(=O)(=O)NC(=O)NN3CCCCCC3)cc2)no1` [CE4, Glisoxepide]: the IC50 is > 50000 nM.

As for `O=C(Nc1c2c(cc3c1CCC3)CCC2)NS(=O)(=O)c1ccc([N+](=O)[O-])cc1` [CE10], the IC50 was < 1000 nM.

For the compound `COc1ccc2c(c1)C(=O)N(CCc1ccc(S(=O)(=O)NC(=O)NC3CCCCC3)cc1)C(=O)C2(C)C` [CE5, Gliquidone], the IC50 is > 50000 nM.

For `CCC1=C(C)CN(C(=O)NCCc2ccc(S(=O)(=O)NC(=O)N[C@H]3CC[C@H](C)CC3)cc2)C1=O` [CE6, Glimepiride], the IC50 was > 50000 nM.

For the compound `Cc1cnc(C(=O)NCCc2ccc(S(=O)(=O)NC(=O)Nc3c4c(cc5c3CCC5)CCC4)cc2)cn1` [Example 3, N-(4-(N-((1,2,3,5,6,7-Hexahydro-s-indacen-4-yl)carbamoyl)sulfamoyl)phenethyl)-5-methylpyrazine-2-carboxamide], the half-inhibitory concentration (IC50) is < 1000 nM.

Take `CC(=O)c1ccc(S(=O)(=O)NC(=O)Nc2c3c(cc4c2CCC4)CCC3)cc1` [Example 1, 4-Acetyl-N-((1,2,3,5,6,7-hexahydro-s-indacen-4-yl)carbamoyl) benzenesulfonamide]: the IC50 was < 1000 nM.

Turning to `Nc1ccc(S(=O)(=O)NC(=O)Nc2c3c(cc4c2CCC4)CCC3)cc1` [CE8], the IC50 was < 1000 nM.

With `Cc1cnc(C(=O)NCCc2ccc(S(=O)(=O)NC(=O)NC3CCCCC3)cc2)cn1` [CE3, Glipizide], the IC50 was > 200000 nM.

Consider `O=C(Nc1c2c(cc3c1CCC3)CCC2)NS(=O)(=O)c1ccc2c(c1)CCC2` [CE9], for which the IC50 is < 1000 nM.

Turning to `CC(=O)c1ccc(S(=O)(=O)NC(=O)NC2CCCCC2)cc1` [CE1, Acetohexamide], the IC50 is > 200000 nM.
